Test results from patent publication US11338006B2, “Composition and method for promoting digestive health” (Vidy Herbs, Inc., priority 2018, dated 2022).

Assays:
male Sprague Dawley rats [1] = assay: gastrointestinal transit (GIT); assay type: in vivo; conditions: single dose (10 mg/kg), p<0.001
Protocol: (§1) A composition of asafoetida and milk thistle extract in a ratio of 1:3 was evaluated for effects on gastric emptying and gastrointestinal transit is Sprague-Dawley rats. Twenty-four male Sprague Dawley (SD) rats (190-200 g) were divided into four groups, each group consisted of six animals with less than 20% mean body weight range. Group I served as control group, Group II referenced standard Domiperidone, Groups III and IV were administered the composition. During experimentation, animals were housed under standard husbandry conditions at a temperature of 22±3° C., relative humidity (30-70%) and a light:dark cycle of 12:12 h. […]
All treatments were given for seven days daily in the morning except reference standard and on day 8th after fasted for 16 h all groups were administered with respective doses of the composition or standard drug Domperidone. Gastric emptying was measured by the use of phenol red method as described previously (Kawachi et al. 2011). […] The amount of phenol red in the supernatant was determined based on the absorbance at 570 nm measured using a microplate reader (Multiskan EX, Thermo Scientific). […] Gastric emptying was calculated using the formula: (1−amount of phenol red in the test sample/amount of phenol red in the standard sample)×100. […]
The composition in beadlet form was evaluated for efficacy in alleviating the delayed gastric emptying using an animal model. […]

[2] = body weight in the gastric emptying study; assay type: in vivo, Sprague Dawley rats; conditions: 10 mg/kg orally
Protocol: A composition of asafoetida and milk thistle extract in a ratio of 1:3 was evaluated for effects on gastric emptying and gastrointestinal transit is Sprague-Dawley rats. Twenty-four male Sprague Dawley (SD) rats (190-200 g) were divided into four groups, each group consisted of six animals with less than 20% mean body weight range. Group I served as control group, Group II referenced standard Domiperidone, Groups III and IV were administered the composition. During experimentation, animals were housed under standard husbandry conditions at a temperature of 22±3° C., relative humidity (30-70%) and a light:dark cycle of 12:12 h. Animals were allowed free access to pellet feed and UV purified water.
Body weights of each animal group were measured at initiation of experiment, on day 7, and fasting on day 8.

male Sprague Dawley rats [3] = assay: gastric emptying, phenol red method; assay type: in vivo; conditions: 10 mg/kg orally, 20 minutes after phenol red meal; control 64.94%
Protocol: as §1
All treatments were given for seven days daily in the morning except reference standard and on day 8th after fasted for 16 h all groups were administered with respective doses of the composition or standard drug Domperidone. Gastric emptying was measured by the use of phenol red method as described previously (Kawachi et al. 2011). […] The amount of phenol red in the supernatant was determined based on the absorbance at 570 nm measured using a microplate reader (Multiskan EX, Thermo Scientific). […] Gastric emptying was calculated using the formula: (1−amount of phenol red in the test sample/amount of phenol red in the standard sample)×100.
The percentage gastric emptying was assessed after 20 minutes of phenol red meal administration in rats. […]

In the case of O=c1[nH]c2ccccc2n1CCCN1CCC(n2c(=O)[nH]c3cc(Cl)ccc32)CC1 [Domperidone], the “GIT compared to control” value (male Sprague Dawley rats [1]) is reported as “significant increase”, the Body weight ([2]; Day 7) is reported as 228.69 ± 12.07 g and the Body weight ([2]; Fasting (Day 8)) is reported as 211.9 ± 11.72 g. It also gave a Body weight ([2]; Initial) of 209.68 ± 9.71 g and a percentage gastric emptying (male Sprague Dawley rats [3]) of 78.86%.
